For this experiment, the system named is small (about 50 μm-about 90 μm) arterioles of the cremaster muscle. On the set-up: species or system male Sprague-Dawley rats. Particulars: rat, in vivo.

For the compound `CC[N+](CC)(CC)CCOc1cccc(OCC[N+](CC)(CC)CC)c1OCC[N+](CC)(CC)CC` [gallamine triethiodide], the “effect on microvessel diameter” value is “Significant vasoconstriction” and the “vasodilation over time (time-dependent effects control)” value is on record as “No vasodilation”.

(Values after patent US20110142882A1 (priority 2009, published 2011).)
